Assay [1] concerns the target T1, reduced folate carrier (RFC/SLC19A1) (Homo sapiens, UniProt P41440).
T1 construct: CEM-7A cells, which display 30-fold RFC overexpression relative to wild-type CCRF-CEM cells; endogenous in cells; host or cells: CEM-7A (CCRF-CEM variant, RFC+++ 30-fold)
T1 sequence (P41440 1-591): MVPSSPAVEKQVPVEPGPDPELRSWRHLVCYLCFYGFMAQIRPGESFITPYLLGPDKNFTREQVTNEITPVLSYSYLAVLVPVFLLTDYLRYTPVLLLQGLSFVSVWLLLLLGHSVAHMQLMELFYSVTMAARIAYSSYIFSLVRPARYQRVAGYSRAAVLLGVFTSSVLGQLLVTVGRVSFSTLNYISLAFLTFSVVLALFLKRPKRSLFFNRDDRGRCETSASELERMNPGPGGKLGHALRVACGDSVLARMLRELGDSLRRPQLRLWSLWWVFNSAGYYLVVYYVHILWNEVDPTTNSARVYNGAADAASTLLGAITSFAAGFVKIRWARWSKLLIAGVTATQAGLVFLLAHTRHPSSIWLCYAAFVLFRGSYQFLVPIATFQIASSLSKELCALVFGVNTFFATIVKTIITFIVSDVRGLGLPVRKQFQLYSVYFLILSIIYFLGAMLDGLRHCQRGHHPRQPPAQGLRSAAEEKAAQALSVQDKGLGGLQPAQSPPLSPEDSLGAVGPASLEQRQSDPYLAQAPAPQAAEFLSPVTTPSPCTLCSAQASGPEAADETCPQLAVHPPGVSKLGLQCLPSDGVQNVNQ
Briefly: Inhibition of RFC-mediated [3H]-l-LV influx in CEM-7A cells. Format: cell-based. The procedure: (§1) In order to determine whether the LV isomers were substrates for either folate receptor α (FRα), RFC and/or PCFT, we used model systems with established overexpression of these receptors or transporters ([Westerhof et al., 1995a]; [Westerhof et al., 1995b]; [Lasry et al., 2008]; [Van der Heijden et al., 2009]).
CEM-7A cells (2 × 10^6) were suspended in 1 mL HBSS and the assay was initiated by addition of 25 μL 200 μM [^3H]-l-LV; 5,000 pmol (i.e., 5 μM final concentration). Incubations proceeded for 2 min at 37°C in the absence and presence of increasing amounts of unlabelled LV/antifolate drug. Blanks consisted of a separate incubation at 4°C or incubation with 100-fold molar excess of unlabelled l-LV. [^3H]-l-LV influx was terminated by adding 9 mL ice-cold HBSS, centrifugation and an additional wash of the cells with 10 mL ice-cold buffer. Cell pellets were then assessed for radioactivity. Relative affinities for RFC are expressed as the concentration of unlabelled drug necessary to inhibit [^3H]-l-LV uptake by 50%.

The subject of a further assay is CHO/C5 cells. Briefly: Growth inhibition, SRB assay, CHO/C5 (RFC-deficient). Format: cell-based, Chinese hamster. On the procedure:
(§2) Briefly, cells were seeded in triplicate in 96-well plates at their pre-established optimal density (CHO cells: 2,500 cells/100 μL; WiDr and HT29: 3,500 cells/100 μL; WiDr-LF/LV, LS174T: 5,000 cells/100 μL; CaCo2, CaCo2-LF/LV, H292, H28 and MSTO-211H: 6,000 cells/100 μL; H460, SW948 and SW1398: 7,000 cells/100 μL) and were allowed to attach for ∼ 24 h at 37°C in 5% CO2 and 100% humidified incubator. Thereafter, 100 μL of drug dilution without LV, or with 5 μM l-LV/5 μM d-LV/10 μM dL-LV (or any LV alone) were added. Cells were allowed to grow for 72 h at 37°C in 5% CO2 and 100% humidity. The t = 0 h control plate consisted of cells plated on the same day as the other cells, but after 24 h at 37°C in 5% CO2 and 100% humidity, only 100 μL medium was added and the cells were fixed immediately with 50% trichloroacetic acid (TCA) in milliQ water (25 μL per well) and put at 4°C for at least 1 h. Plates were washed five times with water and dried. Cells were stained with the SRB protein dye (0.4% (w/v) in 1% acetic acid. Excess dye was washed away four times with 1% acetic acid and plates were dried again. 200 μL of Tris (10 mM Tris (hydroxymethyl)-aminomethane in MQ) was added and optical density (OD) was read at 492 nm after mixing 2–3 min on a plate shaker.
A general note: In SRB staining, fixed cells bind dye roughly in proportion to their protein.

A further assay deals with CHO/C5-MOCK cells. Briefly: Growth inhibition, SRB assay, CHO/C5-MOCK (empty vector). Format: cell-based, Chinese hamster. The procedure:
as §2

For a further assay, the system named is CHO/C5-PCFT cells. Briefly: Growth inhibition, SRB assay, CHO/C5-PCFT (PCFT-transfected). Format: cell-based, Chinese hamster. The procedure: as §2
Another assay has as its system CHO/C5-hRFC cells. Briefly: Growth inhibition, SRB assay, CHO/C5-hRFC (human RFC transfected). The note with it: for IC50: CHO/C5-hRFC; for Protection by l-LV, increase of the IC50 value: hRFC-transfected cells, 5 µM l-LV. Format: cell-based, Chinese hamster. On the procedure: as §2
The next assay has as its system AA8 cells. Briefly: Growth inhibition, SRB assay, AA8 (parental CHO). Format: cell-based, Chinese hamster. The note with it: for IC50: AA8 parental CHO. On the procedure: as §2
Another assay concerns H28 cells. Nature of the assay: Growth inhibition, SRB assay, H28 (MPM). Format: cell-based, human. The note with it: H28, SRB, read-out: IC50, 72 h drug exposure. On the procedure: as §2
Another assay deals with MSTO-211H cells. Briefly: Growth inhibition, SRB assay, MSTO-211H (MPM). Format: cell-based, human. The note with it: SRB, read-out: IC50, 72 h drug exposure. The procedure:
as §2

In a further assay the test system is H460 cells. Briefly: Growth inhibition, SRB assay, H460 (NSCLC). Format: cell-based, human. The note with it: H460, SRB, read-out: IC50, 72 h drug exposure. On the procedure: as §2
The test system of a further assay is H292 cells. Nature of the assay: Growth inhibition, SRB assay, H292 (NSCLC). Format: cell-based, human. The note with it: H292, SRB, read-out: IC50, 72 h drug exposure. On the procedure: as §2
A further assay concerns the target T2, human PCFT (Homo sapiens, UniProt Q96NT5).
T2 construct: expressed in transfected cells; host or cells: CHO/C5 (RFC-deficient Chinese hamster ovary cells, no PCFT)
T2 sequence (Q96NT5 1-459): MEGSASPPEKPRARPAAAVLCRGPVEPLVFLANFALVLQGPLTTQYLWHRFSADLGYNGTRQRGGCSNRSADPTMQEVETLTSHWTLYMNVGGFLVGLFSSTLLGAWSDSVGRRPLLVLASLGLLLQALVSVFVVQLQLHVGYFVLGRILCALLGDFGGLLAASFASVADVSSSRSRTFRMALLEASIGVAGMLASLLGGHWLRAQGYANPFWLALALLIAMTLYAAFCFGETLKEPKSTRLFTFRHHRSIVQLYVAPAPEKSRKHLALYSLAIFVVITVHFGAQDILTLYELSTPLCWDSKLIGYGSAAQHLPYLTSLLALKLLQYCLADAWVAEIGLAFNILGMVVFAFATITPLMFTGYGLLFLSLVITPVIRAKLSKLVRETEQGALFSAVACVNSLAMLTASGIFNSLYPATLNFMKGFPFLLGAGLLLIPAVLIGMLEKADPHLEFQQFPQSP
Briefly: Inhibition of PCFT-mediated [3H]-l-LV influx in CHO/C5-PCFT cells. Format: cell-based, Chinese hamster (CHO cells). On the procedure:
as §1
The competitive inhibition by 2.5 μM [^3H]-l-LV influx of PCFT was measured essentially as described for the RFC assay, except that the incubation time was 3 min, at pH 5.5 (the optimal pH for PCFT) and pH 7.4 with increasing amounts of unlabelled LV stereoisomers/antifolate drug. For PCFT too, relative affinities were expressed as the concentration of unlabelled drug necessary to inhibit 50% of [^3H]-l-LV influx.

The target in the next assay is T3, folate receptor α (FRα) (Homo sapiens, UniProt P15328).
T3 construct: endogenous in cells; host or cells: KB cells (FRα++)
T3 sequence (P15328 25-257): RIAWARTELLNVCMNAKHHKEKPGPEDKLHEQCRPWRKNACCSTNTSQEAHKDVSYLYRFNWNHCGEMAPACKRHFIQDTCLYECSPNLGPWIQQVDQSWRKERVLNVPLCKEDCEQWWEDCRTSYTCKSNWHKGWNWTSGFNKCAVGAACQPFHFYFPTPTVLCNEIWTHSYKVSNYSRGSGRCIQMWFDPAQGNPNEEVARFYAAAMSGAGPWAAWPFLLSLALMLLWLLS
Briefly: Intact cell competitive binding assay, displacement of [3H]-folic acid from FRα in KB cells. The procedure: as §1
For FRα we used KB cells ([Westerhof et al., 1995b]). An intact cell binding assay for competitive binding was performed as described previously ([Westerhof et al., 1995a]). Briefly, cells were washed with Hanks balanced salt solution and 6 mM glucose (HBSS, pH 7.4), suspended in 1 mL of this solution (1*10^6 for KB cells) and incubated at 4°C for 15 min with 100 pmol [^3H]-folic acid [(^3H)-FA], in the presence and absence of unlabelled folic acid or LV stereoisomers. Cells were collected by centrifugation and analysed for radioactivity. Relative affinities for FRα were defined as the inverse ratio of compound to displace 50% of radioactive folic acid from FRα. The relative affinity of folic acid was set at 1.
Background: In a radioligand displacement assay an active substance lowers the binding of a labelled ligand.

The test system of a further assay is colon cancer cell lines. Nature of the assay: Growth inhibition, SRB assay, panel of colon cancer cell lines. Format: cell-based, human. The note with it: selected colon cancer cell lines: WiDr, HT29, SW948 and SW1398 cells; 5 µM l-LV. On the procedure: as §2
[2] abbreviates: Cricetulus griseus, antifolate alone.

Each structure is given as a SMILES string. Where “and” joins values, the source holds several entries; their conditions need not be identical. Equal entries are not always repeated. Where two headings read alike, the source gives them in different places. Bounds are passed on as bounds.

As for `CN(Cc1cnc2nc(N)nc(N)c2n1)c1ccc(C(=O)N[C@@H](CCC(=O)O)C(=O)O)cc1` [MTX, methotrexate], the “50% inhibition of [3H]-l-LV influx (RFC), fold higher concentration than l-LV” value in assay [1] worked out at 3 fold. Moreover, the IC50 in the assay with CHO/C5 cells (setting [2]) is 8.93 µM; with CHO/C5 cells (antifolate + 5 µM l-LV) it was over 100 µM; in the assay with CHO/C5-MOCK cells (setting [2]) it was 6.67 µM; in the assay with CHO/C5-MOCK cells (antifolate + 5 µM l-LV) it was over 100 µM; in the assay on CHO/C5-PCFT cells (setting [2]), 3.39 µM; in the assay with CHO/C5-PCFT cells (antifolate + 5 µM l-LV) it was 41 µM. The IC50 with CHO/C5-hRFC cells (antifolate + 5 µM l-LV) was 1.45 µM; in the assay with CHO/C5-hRFC cells (setting [2]) it was 0.02 µM; in the assay on AA8 cells (antifolate + 5 µM l-LV) it was 6.6 µM; in the assay on AA8 cells (setting [2]) it was 0.038 µM. In the assay with CHO/C5-hRFC cells, the “Protection by l-LV, increase of the IC50 value” is reported as 72 fold. The “Fold less active than PLX” value in the assay on AA8 cells (AA8 cells) amounted to 10 fold.
On to `Cc1nc2ccc(CN(C)c3ccc(C(=O)N[C@@H](CCC(=O)O)C(=O)O)s3)cc2c(=O)[nH]1` [RTX, raltitrexed], for which the IC50 is 4.26 µM in the assay on H28 cells (antifolate + 5 µM l-LV); 0.136 ± 0.016 µM in the assay on H28 cells (Homo sapiens, NCI-H28, 72 h, antifolate alone); 0.008 ± 0.0005 µM in the assay with MSTO-211H cells (Homo sapiens, 72 h, antifolate alone); 4.58 µM with MSTO-211H cells (antifolate + 5 µM l-LV); 19.8 µM with H460 cells (antifolate + 5 µM l-LV); 0.022 ± 0.0009 µM in the assay with H460 cells (Homo sapiens, NCI-H460, 72 h, antifolate alone). In addition, the IC50 with H292 cells (antifolate + 5 µM l-LV) was 6.33 µM; in the assay with H292 cells (Homo sapiens, NCI-H292, 72 h, antifolate alone) it was 0.014 ± 0.0008 µM; in the assay on CHO/C5 cells (setting [2]), 2.73 µM; in the assay on CHO/C5 cells (antifolate + 5 µM l-LV), 6.68 µM; in the assay with CHO/C5-MOCK cells (setting [2]), 2.4 µM; in the assay with CHO/C5-MOCK cells (antifolate + 5 µM l-LV), over 100 µM. Moreover, the IC50 with CHO/C5-PCFT cells (setting [2]) was determined as 4.33 µM; in the assay on CHO/C5-PCFT cells (antifolate + 5 µM l-LV) it was 52.6 µM; in the assay with CHO/C5-hRFC cells (antifolate + 5 µM l-LV), 11.7 µM; in the assay with CHO/C5-hRFC cells (setting [2]), 0.008 µM; in the assay on AA8 cells (antifolate + 5 µM l-LV), 2.92 µM; in the assay on AA8 cells (setting [2]), 0.019 µM. Also, the “Protection by l-LV, increase of the IC50 value” with CHO/C5-hRFC cells amounted to 1462 fold.
With `Nc1nc(=O)c2c([nH]1)NC[C@H](CNc1ccc(C(=O)N[C@@H](CCC(=O)O)C(=O)O)cc1)N2C=O` [[^3H]-l-LV, [3′,5′,7,9-^3H(N)]-(6S)-Leucovorin], the “PCFT influx rate of [3H]-l-LV at pH 7.4 compared to pH 5.5” value at human PCFT (CHO/C5/PCFT cells, 2.5 µM [3H]-l-LV) is 11% and 11.5%.
With `Nc1nc2c(c(=O)[nH]1)N(C=O)C(CNc1ccc(C(=O)N[C@@H](CCC(=O)O)C(=O)O)cc1)CN2` (stereo partly drawn) [l-LV, 5-formyltetrahydrofolate], the “Molar excess over folic acid required for displacement of [3H]-FA binding from FRα” value on folate receptor α (FRα) stood at 15 fold. Moreover, the “Relative affinity for FRα” value at folate receptor α (FRα) (100 pmol [3H]-FA, inverse ratio of amount of drug displacing 50% of [3H]-FA, FA set to 1) amounted to 0.073. The “RFC substrate affinity of l-LV over d-LV” value in assay [1] came to 8 fold. For the same compound, the IC50 came to 5.5 µM in assay [1] (5 µM [3H]-l-LV, 2 min, 37°C, read-out: Concentration for 50% inhibition of [3H]-l-LV influx (RFC)) and 4 µM on human PCFT (CHO/C5/PCFT cells, 2.5 µM [3H]-l-LV, pH 5.5, 3 min, read-out: Concentration for 50% inhibition of PCFT-mediated [3H]-l-LV influx). On human PCFT, the “PCFT substrate affinity of l-LV over d-LV” value stood at 3.5 fold. Also, in the assay on colon cancer cell lines, the “Modulation (enhanced efficacy) of 5FU” value is recorded as 2 fold.

For the origin of these results see PMC11371747, “The role of l-leucovorin uptake and metabolism in the modulation of 5-fluorouracil efficacy and antifolate toxicity” (Frontiers in Pharmacology, 2024).
